The source of these data is patent publication US20250059205A1, “Heterocyclic Compounds and Methods of Use” (AMGEN INC., priority 2021, published 2025).

pIC50: −log10 of the molar value.

Test [1] has as its target His-tagged KRAS G12D protein (Homo sapiens, UniProt P01116, G12D). As to the kind of experiment: KRAS G12D TR-FRET Assay. Type of test: binding.
The target in test [2] is GDP-bound KRAS protein (aa 1-169), containing both G12D and C118A amino acid substitutions (Homo sapiens, UniProt P01116, C118A/G12D). As to the kind of experiment: KRAS G12D Coupled Nucleotide Exchange Assay. It counts as biochemical. The conditions noted are these: 2 h compound pre-incubation. The procedure:
Following compound pre-incubation, purified SOS protein (aa 564-1049) and GTP (Roche 10106399001) were added to the assay wells and incubated for an additional 30 min. […] The assay plates were then read on a PerkinElmer EnVision Multilabel Reader, using AlphaScreen® technology, and data were analyzed using a 4-parameter logistic model to calculate IC50 values.

Test [3] has as its system Phosphorylation of ERK1/2 in A-427 cells. As to the kind of experiment: Phospho-ERK1/2 MSD Assay (A-427 cells). Type of test: cell-based. The conditions noted are these: Homo sapiens, A-427, 2 h, 2 h treatment, read-out: p-ERK (A427 cells) IC50. In outline:
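ERK1/2 phosphorylation measured by Meso Scale whole-cell lysate assay after A-427 cells were exposed to a titration of compound for 2 h at 37 °C.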

Test [4] concerns Phosphorylation of ERK1/2 in AsPC-1 cells. Description: Phospho-ERK1/2 MSD Assay (AsPC-1 cells). Type of test: cell-based. The conditions noted are these: Homo sapiens, ASPC1, 2 h, 2 hours treatment, read-out: p-ERK (AsPC-1 cells) IC50. The gist of the method:
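Read-out: MSD electrochemiluminescent detection of phosphorylated ERK1/2 in whole-cell lysates, fitted to a 4-parameter logistic curve for IC50. Prior to lysis, AsPC-1 cells (25,000 per well) received a 2 h compound dose-response at 37 °C.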

Chain of GDP-bound KRAS protein (aa 1-169), containing both G12D and C118A amino acid substitutions (P01116 1-169 isoform P01116-2 G12D/C118A): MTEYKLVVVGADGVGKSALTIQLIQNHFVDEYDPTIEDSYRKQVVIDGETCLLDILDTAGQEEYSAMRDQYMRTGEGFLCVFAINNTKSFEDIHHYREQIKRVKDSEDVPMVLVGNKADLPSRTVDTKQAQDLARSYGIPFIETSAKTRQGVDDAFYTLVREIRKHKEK
Chain of His-tagged KRAS G12D protein (P01116 1-188 isoform P01116-2 G12D): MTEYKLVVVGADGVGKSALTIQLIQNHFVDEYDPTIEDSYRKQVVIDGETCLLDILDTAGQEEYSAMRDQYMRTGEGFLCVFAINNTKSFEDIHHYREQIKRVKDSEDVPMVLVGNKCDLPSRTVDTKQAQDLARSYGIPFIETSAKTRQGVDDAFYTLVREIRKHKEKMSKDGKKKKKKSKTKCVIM

On to `Oc1cc(-c2c(F)cc3c(N4[C@@H]5CC[C@H]4CNC5)nc(OC[C@@]45CCCN4C[C@H](F)C5)nc3c2F)c2ncccc2c1` [Example 27, 8-(4-((1R,5S)-3,8-diazabicyclo[3.2. 1]octan-8-yl)-6,8-difluoro-2-(((2R,7aS)-2-fluorotetrahydro-1H-pyrrolizin-7a(5H)-yl)methoxy)quinazolin-7-yl)quinolin-6-ol], for which the results for the negative logarithm of the IC50 (pIC50) in test [1], in test [3] and in test [4] were 7.33, 6.06 and 5.28, respectively. For the same compound, the “Avg 2 h Coupled Exchange IC50” value in test [2] was determined as 21 nM.
The matching figures for `Cc1cc(N)nc(-c2ccc3c(N4C[C@H]5CC[C@@H](C4)N5)nc(OC[C@@]45CCCN4C[C@H](F)C5)nc3c2F)c1C(F)(F)F` [Example 229, 6-(4-((1R,5S)-3,8-Diazabicyclo[3.2.1]octan-3-yl)-8-fluoro-2-(((2R,7aS)-2-fluorotetrahydro-1H-pyrrolizin-7a(5H)-yl)methoxy)quinazolin-7-yl)-4-methyl-5-(trifluoromethyl)pyridin-2-amine]: 8.15, 6.65, 6.31 and 4 nM.
The matching figures for `Oc1cc(-c2c(Cl)cc3c(N4C[C@H]5CC[C@@H](C4)N5)nc(OC[C@@]45CCCN4C[C@H](F)C5)nc3c2F)c2c(F)cccc2c1` [Example 137, 4-(4-((1R,5S)-3,8-diazabicyclo[3.2.1]octan-3-yl)-6-chloro-8-fluoro-2-(((2R,7aS)-2-fluorotetrahydro-1H-pyrrolizin-7a(5H)-yl)methoxy)quinazolin-7-yl)-5-fluoronaphthalen-2-ol]: 7.43, 6.39, 5.77 and 34 nM.
In the same order, the values of `Cc1ccc2cnn(C)c2c1-c1c(F)cc2c(N3C[C@H]4CC[C@@H](C3)N4)nc(OC[C@@]34CCCN3C[C@H](F)C4)nc2c1F` [Example 164, 4-((1R,5S)-3,8-diazabicyclo[3.2.1]octan-3-yl)-7-(1,6-dimethyl-1H-indazol-7-yl)-6,8-difluoro-2-(((2R,7aS)-2-fluorotetrahydro-1H-pyrrolizin-7a(5H)-yl)methoxy) quinazoline] are 8.15, 6.06, 6.14 and 6 nM.
Consider `CCc1cccc2cc(O)cc(-c3ccc4c(N5C[C@H]6CC[C@@H](C5)N6)nc(OC[C@@]56CCCN5C[C@H](F)C6)nc4c3C)c12` [Example 168, 4-(4-((1R,5S)-3,8-diazabicyclo[3.2.1]octan-3-yl)-2-(((2R,7aS)-2-fluorotetrahydro-1H-pyrrolizin-7a(5H)-yl)methoxy)-8-methylquinazolin-7-yl)-5-ethylnaphthalen-2-ol], for which the negative-log IC50 (pIC50) in test [1] is 8.40; in test [3], 7.11; in test [4], 6.61. In addition, the “Avg 2 h Coupled Exchange IC50” value in test [2] stood at 8 nM.
The matching figures for `CCc1c(F)ccc2cccc(-c3ccc4c(N5C[C@H]6CC[C@@H](C5)N6)nc(OC[C@@]56CCCN5C[C@H](F)C6)nc4c3C)c12` [Example 58, 4-((1R,5S)-3,8-diazabicyclo[3.2. 1]octan-3-yl)-7-(8-ethyl-7-fluoronaphthalen-1-yl)-2-(((2R,7aS)-2-fluorotetrahydro-1H-pyrrolizin-7a(5H)-yl)methoxy)-8-methylquinazolin]: 8.22, 5.38, 5.61 and 5 nM.
In the same order, the values of `CCc1c(F)ccc2cc(O)cc(-c3c(F)cc4c(N5C[C@H]6CC[C@@H](C5)N6)nc(OC[C@@]56CCCN5C[C@H](F)C6)nc4c3F)c12` [Example 88, 4-(4-((1R,5S)-3,8-diazabicyclo[3.2. 1]octan-3-yl)-6,8-difluoro-2-(((2R,7aS)-2-fluorotetrahydro-1H-pyrrolizin-7a(5H)-yl)methoxy)quinazolin-7-yl)-5-ethyl-6-fluoronaphthalen-2-ol] are 8.40, 8.52, 8.05 and 4 nM.
In the same order, the values of `Nc1ccc(C(F)(F)F)c(-c2ccc3c(N4C[C@H]5CC[C@@H](C4)N5)nc(OC[C@@]45CCCN4C[C@H](F)C5)nc3c2F)n1` [Example 223, 6-(4-((1R,5S)-3,8-diazabicyclo[3.2.1]octan-3-yl)-8-fluoro-2-(((2R,7aS)-2-fluorotetrahydro-1H-pyrrolizin-7a(5H)-yl)methoxy)quinazolin-7-yl)-5-(trifluoromethyl) pyridin-2-amine] are 7.36, 6.05, 5.52 and 15 nM.
As to `CCc1c(F)ccc2cc(O)cc(-c3c(F)cc4c(N5C[C@H]6C[C@@H](C5)N6)nc(OC[C@@]56CCCN5C[C@H](F)C6)nc4c3F)c12` [Example 121, 4-(4-((1R,5S)-3,6-diazabicyclo[3.1.1]heptan-3-yl)-6,8-difluoro-2-(((2R,7aS)-2-fluorotetrahydro-1H-pyrrolizin-7a(5H)-yl)methoxy)quinazolin-7-yl)-5-ethyl-6-fluoronaphthalen-2-ol], the figures for the negative logarithm of the IC50 (pIC50) in test [1], in test [3] and in test [4] were 7.59, 5.26 and 5.55, respectively. For the same compound, the “Avg 2 h Coupled Exchange IC50” value in test [2] came out at 8 nM.
In the same order, the values of `CCc1c(F)ccc2cc(O)cc(-c3ccc4c(N5[C@@H]6CNC[C@H]5COC6)nc(OC[C@@]56CCCN5C[C@H](F)C6)nc4c3F)c12` [Example 152, 4-(4-((1R,5S)-3-oxa-7,9-diazabicyclo[3.3.1]nonan-9-yl)-8-fluoro-2-(((2R,7aS)-2-fluorotetrahydro-1H-pyrrolizin-7a(5H)-yl)methoxy)quinazolin-7-yl)-5-ethyl-6-fluoronaphthalen-2-ol] are 8.30, 7.14, 7.12 and 4 nM.
As to `Oc1cc(-c2c(F)cc3c(N4[C@@H]5CNC[C@H]4COC5)nc(OC[C@@]45CCCN4C[C@H](F)C5)nc3c2F)c2ccccc2c1` [Example 14, 4-(4-((1R,5S)-3-oxa-7,9-diazabicyclo[3.3.1]nonan-9-yl)-6,8-difluoro-2-(((2R,7aS)-2-fluorotetrahydro-1H-pyrrolizin-7a(5H)-yl)methoxy)quinazolin-7-yl)naphthalen-2-ol], the pIC50 in test [1] is 8.05; in test [3], 6.56; in test [4], 6.12. For the same compound, in test [2], the “Avg 2 h Coupled Exchange IC50” value came to 8 nM.
The matching figures for `Oc1cc(-c2ccc3c(N4[C@@H]5CC[C@H]4CNC5)nc(OC[C@@]45CCCN4C[C@H](F)C5)nc3c2F)c2cccnc2c1` [Example 29, 5-(4-((1R,5S)-3,8-diazabicyclo[3.2. 1]octan-8-yl)-8-fluoro-2-(((2R,7aS)-2-fluorotetrahydro-1H-pyrrolizin-7a(5H)-yl)methoxy)quinazolin-7-yl)quinolin-7-ol]: 6.79, less than 5.00, 5.00 and 80 nM.
The matching figures for `CCc1c(F)ccc2cc(O)cc(-c3c(F)cc4c(N5C[C@H]6CC[C@@H](C5)N6)nc(OC[C@@H]5C[C@@H](F)CN5C)nc4c3F)c12` [Example 89, 4-(4-((1R,5S)-3,8-diazabicyclo[3.2. 1]octan-3-yl)-6,8-difluoro-2-(((2S,4R)-4-fluoro-1-methylpyrrolidin-2-yl)methoxy)quinazolin-7-yl)-5-ethyl-6-fluoronaphthalen-2-ol]: 8.40, 7.10, 6.86 and 4 nM.
In the same order, the values of `CCc1c(F)ccc2cc(O)cc(-c3cc4nc(OC[C@@]56CCCN5C[C@H](F)C6)nc(N5C[C@H]6CC[C@@H](C5)N6)c4cc3O)c12` [Example 201, 4-((1R,5S)-3,8-diazabicyclo[3.2.1]octan-3-yl)-7-(8-ethyl-7-fluoro-3-hydroxynaphthalen-1-yl)-2-(((2R,7aS)-2-fluorotetrahydro-1H-pyrrolizin-7a(5H)-yl)methoxy) quinazolin-6-ol] are 8.52, 7.80, 7.35 and 6 nM.
Turning to `Fc1c(-c2c(C(F)(F)F)ccc3[nH]ncc23)ccc2c(N3C[C@H]4CC[C@@H](C3)N4)nc(OC[C@@]34CCCN3C[C@H](F)C4)nc12` [Example 194, 4-((1R,5S)-3,8-diazabicyclo[3.2.1]octan-3-yl)-8-fluoro-2-(((2R,7aS)-2-fluorotetrahydro-1H-pyrrolizin-7a(5H)-yl)methoxy)-7-(5-(trifluoromethyl)-1H-indazol-4-yl)quinazoline], the pIC50 in test [1] is 7.85; in test [3] it was 6.07; in test [4] it was 6.09. In addition, the “Avg 2 h Coupled Exchange IC50” value in test [2] turned out to be 10 nM.
In the same order, the values of `CN1C[C@H](F)C[C@H]1COc1nc(N2[C@@H]3CC[C@H]2CNC3)c2cc(F)c(-c3cc(O)cc4cccnc34)c(F)c2n1` [Example 30, 8-(4-((1R,5S)-3,8-diazabicyclo[3.2. 1]octan-8-yl)-6,8-difluoro-2-(((2S,4R)-4-fluoro-1-methylpyrrolidin-2-yl)methoxy)quinazolin-7-yl)quinolin-6-ol] are 6.25, 4.75, 4.67 and 158 nM.
